Non-standard residues stand in square brackets, D forms with d. No end group written: not given here. Abu = CC[C@H](N)C(=O)O
Key:
CNV laser mouse model = assay: CNV laser mouse model, intravitreous injection, choroidal flat mounts; assay type: in vivo, C57 BL/6 female mice; settings: day 14
Text: Referring now to FIG. 9 is shown in vivo 336 polymer nanoparticle/SP6001 DEAH peptide (“DEAH” disclosed as SEQ ID NO: 2484); Peptide-336 polymer nanoparticles were formulated as previously described and intravitreously injected to test in vivo efficacy. ACNV laser mouse model was used on C57 BL/6 female mice. The mice receive laser eye treatments on day zero, followed by the intravitreous injections. Mice are then perfused with fluorescein labeled dextran on day 14 and choroidal flat mounts (bottom) were analyzed via fluorescence microscopy.
Referring now to FIG. 49 in shown the in vivo effects of microparticle formulations in both the CNV and rho/VEGF model over time. DEAH (SP6001)-336 PBAE nanoparticle formulation made as described previously (“DEAH” disclosed as SEQ ID NO: 2484). […] (Middle) and (Bottom) A genetic model of wet form of age-related macular degeneration in mice used to test long-term effect of microparticles. […] While PLGA is used to form the microparticles used above, other polymers may be used including the synthetic polyesters and polyamides described above. […]

rho/VEGF (V6) mouse = assay: rho/VEGF (V6) mouse, genetic model of wet age-related macular degeneration; assay type: in vivo, mice; settings: 8 weeks after injection
Text: Referring now to FIG. 49 in shown the in vivo effects of microparticle formulations in both the CNV and rho/VEGF model over time. DEAH (SP6001)-336 PBAE nanoparticle formulation made as described previously (“DEAH” disclosed as SEQ ID NO: 2484). […] (Middle) and (Bottom) A genetic model of wet form of age-related macular degeneration in mice used to test long-term effect of microparticles. […] While PLGA is used to form the microparticles used above, other polymers may be used including the synthetic polyesters and polyamides described above. In certain embodiments, blends of these polymer are combined with PLGA to form microparticles with differing environmental sensitivity and release properties; (a) the effect of microparticle (SP-6001) in CNV model mouse; (b) the effect of microparticle (SP-6001) in rho/VEGF (V6) mouse, 1 week after injection; and (c) the effect of microparticle (SP-6001) in rho/VEGF (V6) mouse, 8 weeks after injection.

[1] = system: MDA-MB-231 tumor xenograft; assay: MDA-MB-231 breast cancer xenograft, orthotopic, i.p. peptide; parameters: species or system SCID mice; settings: mouse, in vivo
Text: BMC Cancer 2010; 10:29, and in a breast cancer xenograft model using MDA-MB-231 cells. Koskimaki J E, Karagiannis E D, Rosca E V, Vesuna F, Winnard P T, Jr., Raman V, et al. Peptides derived from type IV collagen, CXC chemokines, and thrombospondin-1 domain-containing proteins inhibit neovascularization and suppress tumor growth in MDA-MB-231 breast cancer xenografts. Neoplasia 2009; 11(12):1285-91.
Following orthotopic inoculation of SCID mice in the mammary fat pad area using 2×10^6 cells, tumors grew to approximately 100 mm^3 in 2 weeks; at that time 100 μL of peptide solution was injected i.p. once a day at peptide doses 10-20 mg/kg. PBS solution was injected as control. […] The microvessel density was determined by screening the immunohistologically stained CD31 sections. Inhibition of LEC migration in the ACEA migration assay also was determined (see FIG. 33B).

endothelial cells [2] = assay: Anti-proliferative and anti-migratory activity of free peptides on endothelial cells; assay type: cell-based
Text: Several classes of peptides have been developed that show either anti-proliferative or anti-migratory activity or both on endothelial cells. These peptides appear to function through distinct mechanisms of action and have been tested both in vitro and in vivo in tumor xenografts and in ocular mouse models.
(§1) It is believed that this peptide is the first antilymphangiogenic peptide agent.

[3] = system: lymphatic endothelial cells; assay: Anti-proliferative and anti-migratory activity of free peptides on lymphatic endothelial cells; assay type: cell-based
Text: as §1

endothelial cells [4] = assay: Endothelial cell proliferation, peptides encapsulated in polymeric particles vs free peptides; assay type: cell-based; settings: encapsulated within polymeric particles compared to unencapsulated
Text: Changes to polymer structure, including small changes to the ends of the polymer only, can vary biophysical properties of these particles. These properties can be important to tune for effective in vivo peptide delivery. A small subset of the potential polymer library was screened to measure the effect of encapsulating the antiangiogenic peptides chemokinostatin-1 and pentastatin-1 within polymeric particles compared to unencapsulated, free peptides. […] An example of representative polymers encapsulating peptides is provided in Scheme 5.

Substance	anti-proliferative and anti-migratory activity (endothelial cells [2])	inhibition of endothelial cell proliferation (endothelial cells [4])	further results
EIELVEEEPPF [SP6001, 11-mer anti-angiogenic peptide derived from the serpin domain of DEAH box polypeptide]			angiogenesis in the eye (CNV laser mouse model): significantly reduced angiogenesis; inhibition of angiogenesis (rho/VEGF (V6) mouse): no longer inhibits angiogenesis; tumor xenograft growth [1]: significant inhibition
LLRISLLLIESWLE [SP5033]	anti-proliferative and anti-migratory activity		anti-proliferative and anti-migratory activity [3]: anti-proliferative and anti-migratory activity
LRRFSTMPFMF-Abu-NINNV-Abu-NF (LRRFSTMPFMF[Abu]NINNV[Abu]NF; listed as Homo sapiens) [SP2012]	highly potent anti-proliferative and anti-migratory		
LRRFSTMPFMFCNINNVCNF [Pentastatin]		enhanced the ability of the peptides to inhibit the proliferation of endothelial cells	
NGRKACLNPASPIVKKIIEKMLNS [Chemokinostatin]		enhanced the ability of the peptides to inhibit the proliferation of endothelial cells	
